Experimental data as given in patent US6727263B2, “Indole and 2,3-dihydroindole derivatives, their preparation and use” (H. Lundbeck A/S, priority 1997, dated 2004).
Structures can show the parent of a compound that is named as a salt. Where two headings read alike, the source gives them in different places.

Experiments:
[1] = test system: 3H-5-HT uptake into whole rat brain synaptosomes; test: Inhibition of 3H-5-HT uptake into rat brain synaptosomes; format: biochemical; details: 3H-5-HT accumulation into whole rat brain synaptosomes, in vitro; read-out: Inhibition of serotonin reuptake IC50
Protocol: Inhibition of ^3H-5-HT Uptake Into Rat Brain Synaptosomes
Using this method the ability of drugs to inhibit the accumulation of ^3H-5-HT into whole rat brain synaptosomes is determined in vitro.

[2] = biological target: T1, cloned 5-HT1A receptors (Homo sapiens, UniProt P08908); test: Antagonism of 5-HT induced inhibition of forskolin induced cAMP accumulation; format: cell-based; details: cloned 5-HT1A receptors in transfected HeLa cells (HA7)
T1 construct: expressed in transfected cells; host or cells: HeLa cells (HA7)
T1 sequence (P08908 1-422): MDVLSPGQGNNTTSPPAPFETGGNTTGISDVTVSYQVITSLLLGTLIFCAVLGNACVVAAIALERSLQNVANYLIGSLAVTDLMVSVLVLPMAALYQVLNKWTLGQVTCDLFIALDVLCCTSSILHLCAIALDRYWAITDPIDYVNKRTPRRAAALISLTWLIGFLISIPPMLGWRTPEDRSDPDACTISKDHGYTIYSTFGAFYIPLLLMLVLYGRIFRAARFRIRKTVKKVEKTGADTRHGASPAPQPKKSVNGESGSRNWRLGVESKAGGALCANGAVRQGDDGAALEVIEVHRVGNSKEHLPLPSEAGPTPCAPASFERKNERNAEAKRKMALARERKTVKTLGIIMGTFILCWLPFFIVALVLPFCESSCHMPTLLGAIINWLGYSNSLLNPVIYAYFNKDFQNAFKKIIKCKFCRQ
Protocol: The assay was performed as a modification of the method described by Pauwels, P. J et al, Biochem. Pharmacol. 1993, 45, 375.

[3] = biological target: T2, human 5-HT1A receptors (Homo sapiens, UniProt P08908); test: Inhibition of 3H-5-CT binding to human 5-HT1A receptors
T2 construct: expressed in transfected cells; host or cells: HeLa cells (HA7), used as cell homogenate
T2 sequence (P08908 1-422): T1 sequence (P08908 1-422)
Protocol: Inhibition of ^3H-5-CT Binding to Human 5-HT1A Receptors
Human 5-HT1A receptors (40 μg of cell homogenate) were incubated for 15 minutes at 37° C. in 50 mM Tris buffer at pH 7.7 in the presence of ^3H-5-CT. Non-specific binding was determined by including 10 μM of metergoline. The reaction was terminated by rapid filtration through Unifilter GF/B filters on a Tomtec Cell Harvester. Filters were counted in a Packard Top Counter.

[4] = cloned human 5-HT1A receptors expressed in transfected HeLa cells (HA7), cell homogenate, 15 minutes at 37° C., pH 7.7

Row | Molecule | IC50 [1] | IC50 [2] | IC50 [3] | melting point | IC50 [3, 4] | IC50 ([3]; read-out: Inhibition of 3H-5-CT binding IC50, cloned human 5-HT1A receptors expressed in transfected HeLa cells (HA7), cell homogenate, 15 minutes at 37° C., pH 7.7)
1 | Clc1ccc2[nH]cc(CCN3CCN(c4cccc5c4OCC5)CC3)c2c1.O=C(O)C(=O)O [Compound 1n, 5-Chloro-3-[2-[4-(2,3-dihydrobenzofuran-7-yl)piperazin-1-yl]ethyl]-1H-indole oxalate] | 2.1 nM | 1900 nM | 8.2 nM | 134 to 138 °C | – | –
2 | CC(=O)N1CC(CCN2CCN(c3cccc4c3OCCO4)CC2)c2ccccc21 (centres unmarked) [Compound 2b] | 12 nM | 250 nM | – | 119 to 120 °C | 13 nM | –
3 | 3-[2-[4-(1,4-Benzodioxan-5-yl)piperazin-1-yl]ethyl]-5-methyl-1H-indole hemifumarate [Compound 1j] | 3.5 nM | 980 nM | – | – | – | 14 nM
4 | CC1(C)Cc2cccc(C3=CCN(CCc4c[nH]c5cc(Cl)ccc45)CC3)c2O1 [Compound 1g, 6-Chloro-3-[2-[4-(2,2,-dimethyl-2,3,-dihydrohydrobenzofuran-7-yl)-1,2,3,6-tetrahydro-1-pyridyl]ethyl]-1H-indole oxalate] | 3.8 nM | 1800 nM | 2.8 nM | – | – | –
5 | Clc1ccc2c(c1)NCC2CCN1CCN(c2cccc3c2OCCO3)CC1.O=C(O)C(=O)O (centres unmarked) [Compound 4d, 3-[2-[4-(1,4-Benzodioxan-5-yl)piperazin-1-yl]ethyl]-6-chloro-2,3-dihydro-1H-indole oxalate] | 4.3 nM | 890 nM | – | 185 to 188 °C | 14 nM | –
6 | CC1(C)Cc2cccc(C3CCN(CCc4c[nH]c5cc(Cl)ccc45)CC3)c2O1 [Compound 1f, 6-Chloro-3-[2-[4-(2,2, -dimethyl-2,3-dihydrobenzofuran-7-yl)piperidin-1-yl]ethyl]-1H-indole oxalate] | 5.9 nM | 1800 nM | 6.1 nM | – | – | –
7 | Brc1ccc2[nH]cc(CCN3CCN(c4cccc5c4OCCO5)CC3)c2c1.O=C(O)C(=O)O [Compound 1b, 3-[2-[4-(1,4-Benzodioxan-5-yl)piperazin-1-yl]ethyl]-5-bromo-1H-indole oxalate] | 2.8 nM | 5000 nM | 7.2 nM | 236 to 240 °C | – | –
8 | COc1ccc2[nH]cc(CCN3CCN(c4cccc5c4OCCO5)CC3)c2c1 [Compound 1i, 3-[2-[4-(1,4-Benzodioxan-5-yl)piperazin-1-y]ethyl]-5-methoxy-1H-indole hemioxalate] | 6.8 nM | 620 nM | 6.9 nM | – | – | –
9 | CC1(C)CCc2cc(Cl)cc(N3CCN(CCc4c[nH]c5cc(Cl)ccc45)CC3)c2O1.O=C(O)/C=C/C(=O)O [Compound 3d, 6-Chloro-3-[2-[4-(6-chloro-2,2-dimethyl-3,4-dihydro-2H-1-benzopyran-8-yl)piperazin-1yl]ethyl]-1H-indole fumarate] | 15 nM | 2300 nM | 21 nM | 224 to 225 °C | – | –
10 | Clc1ccc2c(CCN3CC=C(c4cccc5c4OCCO5)CC3)c[nH]c2c1.O=C(O)C(=O)O [Compound 1v, 3-[2-[4-(1,4-Benzodioxan-5-yl)-1,2,3,6-tetrahydropyridin-1-yl]ethyl]-6-chloro-1H-indole oxalate] | 0.85 nM | 3300 nM | 0.81 nM | 240 to 247 °C | – | –
11 | Clc1cccc2[nH]cc(CCN3CCN(c4cccc5c4OCCO5)CC3)c12.O=C(O)C(=O)O [Compound 1e, 3-[2-[4-(1,4-Benzodioxan-5-yl)piperazin-1-yl]ethyl]-4-chloro-1H-indole oxalate] | 0.25 nM | 2400 nM | 11 nM | 210 to 218 °C | – | –
12 | Clc1ccc2[nH]cc(CCN3CCN(c4cccc5c4OCCO5)CC3)c2c1 [Compound 1a, 3-[2-[4-(1,4-Benzodioxan-5-yl)Piperazin-1-yl]Ethyl]-5-Chloro-1H-Indole Oxalate] | 5 nM | 2900 nM | 17 nM | – | – | –
13 | Fc1ccc2[nH]cc(CCN3CCN(c4cccc5c4OCCO5)CC3)c2c1.O=C(O)C(=O)O [Compound 1h, 3-[2-[4-(1,4-Benzodioxan-5-yl)piperazin-1-yl]ethyl]-5-fluoro-1H-indole oxalate] | 1.7 nM | 280 nM | 4.6 nM | 224 to 226 °C | – | –
